Laboratory results from patent publication US20050238732A1, “Carbonated germicide with pressure control” (priority 2003, published 2005).
Read-outs that look alike come from different tables or passages of the source.

Experiments:
[1] = tested on: Bacillus subtilis spores; experiment: Spore suspension test, killing of Bacillus subtilis spores; assay type: cell-based; details: for Log Reduction/mL (20° C., 4 hrs): [NaHCO3], 0 mM; for Log Reduction/mL (3 hr, 20° C., pH = 8): Table 4B
[2] = Storage stability of phthalaldehyde solution (loss by Cannizzaro reaction); assay type: physicochemical; details: stored about 11 weeks
Description: Overall, the Cannizzaro reaction generally leads to loss of phthalaldehyde and a decrease in the germicidal efficacy of the solution. While a pH of from 6 to 10, or 7.5 to 9 generally enhances the efficacy of the phthalaldehyde-carbonate solution, the higher or alkaline pH also generally promotes the Cannizzaro reaction. […] However, about 14% of the phthalaldehyde may be lost if the same solution is stored for about 11 weeks at a pH of 9, at room temperature. Even more of the phthalaldehyde may be converted if the storage period is longer, if the temperature is higher, or if the pH is higher than 9.

[3] = pH range of 3 to 9, single component, per the '999 patent; cited from earlier work
[4] = cited from earlier work
[5] = tested on: Bacillus subtilis spores; details: cited from earlier work
[6] = tested on: Clostridium sporogenes spores; details: cited from earlier work
[7] = tested on: Mycobacterium bovis BCG; details: at least 0.25% by weight phthalaldehyde as the sole active ingredient, 20° C.; cited from earlier work
[8] = Air in headspace
Description: (§1) Experiments were conducted to determine the pressures of several bicarbonate solutions with different bicarbonate concentration, starting pH, and at different temperatures, with air initially in the headspace of the container. Several bicarbonate solutions of different concentration were prepared. The pH of the solutions were adjusted by sparging the solutions with carbon dioxide to achieve a starting pH. About 1030 mL of each solution was introduced into a different 1145 mL glass bottle that was equipped with a thermometer and a pressure sensor. The headspace of each bottle was flushed with air for about one minute and then the bottle was sealed with a stopper. […] The solutions were stirred at about 20° C. until all pressures stabilized. The pressures were recorded. The solutions were then heated in a water bath to 40° C., and then to 55° C., and the pressures were recorded at each of these temperatures. The experiments were conducted at sea level.

[9] = CO2 in headspace
Description: as §1
Experiments were conducted to determine the pressures of sealed containers including bicarbonate solutions when the air initially present in the headspace of the containers was replaced with carbon dioxide. […] The experiments were conducted at sea level.

[10] = Description: A 100 mL round-bottom flask having a capacity of about 135 mL was equipped with a septum, a stirrer bar, and a pressure sensor. […] About 65 mL of a bicarbonate solution having a particular concentration and pH was injected into the flask. Excess pressure was released through a needle on the septum. Carbon dioxide was sparged through the solution to obtain the listed pH and then the solution was sealed in the container with a stopper. The solution was stirred at a temperature of about 20° C. until a stable pressure was achieved. The procedure was repeated for other air partial pressures and bicarbonate solutions. The experiments were conducted at sea level.
[11] = Table 1, 20° C., 8 hr exposure, no pH control
[12] = Table 2, 20° C., 8 hr exposure, no pH control
[13] = Table 3, 20° C., 8 hr exposure, no pH control
[14] = Table 3, 20° C., 24 hr exposure, no pH control
[15] = 0.25% phthalaldehyde as the sole active ingredient, 20° C.
[16] = Table 2, 20° C., 4 hr exposure, no pH control
[17] = Table 2, 20° C., 24 hr exposure, no pH control

## O=Cc1ccccc1C=O [0.3% OPA, 1,2-benzenedicarboxaldehyde]
[1]; Table 1, 20° C., 4 hr exposure, no pH control
  Log Reduction/mL (20° C.) 4 hr: 0.5
[1]; [11]
  Log Reduction/mL (20° C.) 8 hr: 0.6
[1]; Table 1, 20° C., 24 hr exposure, no pH control
  Log Reduction/mL (20° C.) 24 hr: 2.9
[1]; [12]
  Log Reduction/mL (20° C.) 8 hr: ~0.6
[1]; [13]
  Log Reduction/mL (20° C.) 8 hr: ~0.6
[1]; [14]
  Log Reduction/mL (20° C.) 24 hr: ~2.9
[1]; Table 4A, pH 7.0, 20° C., 4 hr
  Log Reduction/mL (20° C.) 4 hr: 0.5
[1]; Table 4A, pH 7.0, 20° C., 8 hr
  Log Reduction/mL (20° C.) 8 hr: 0.6
[1]; Table 4A, pH 7.0, 20° C., 24 hr
  Log Reduction/mL (20° C.) 24 hr: 2.9
[1]; Table 7, 20° C., 2 hr
  Log Reductions/mL (20° C.) 2 hr: 0.4
[1]; Table 7, 20° C., 4 hr
  Log Reductions/mL (20° C.) 4 hr: 0.5
[1]; Table 7, 20° C., 6 hr
  Log Reductions/mL (20° C.) 6 hr: 0.7
[1]; Table 7, 20° C., 8 hr
  Log Reductions/mL (20° C.) 8 hr: 0.6
[1]; Table 7, 20° C., 24 hr
  Log Reductions/mL (20° C.) 24 hr: 2.9
[1]; Table 10, 20° C., 4 hr
  Log Reductions/mL (20° C.) 4 hr: 1.5
[1]; Table 10, 20° C., 24 hr
  Log Reductions/mL (20° C.) 24 hr: 2.9
[1]; Table 13, 20° C.
  Log Reduction/mL (20° C., 4 hrs): 0.5
[1]; Table 14, 20° C.
  Log Reduction/mL (20° C., 4 hrs): 0.5
[1]; Table 15, 20° C.
  Log Reduction/mL (20° C., 4 hrs): 0.5
[2]; pH of 7 or lower, room temperature to about 40° C.
  loss of phthalaldehyde on storage: without a noticeable loss
[2]; pH of 9, room temperature
  phthalaldehyde lost on storage: about 14%
[3]
  stability of compositions containing phthalaldehyde: excellent stability
[4]
  solubility in water: about 5 % by weight
[5]; [15]
  time for sporicidal activity: 24 h
[5]; 1.0% phthalaldehyde
  time in which sterilization is achieved: 10 h
[6]; [15]
  time for sporicidal activity: 24 h
[6]; 1.0% phthalaldehyde
  time in which sterilization is achieved: 10 h
[7]
  time to kill all Mycobacterium bovis BCG in contact with the composition: ≤ 10 min

## [F-].[Li+] [100 mM LiF, lithium fluoride]
[1]; [14]
  Log Reduction/mL (20° C.) 24 hr: 0.0

## [F-].[K+] [1000 mM KF, potassium fluoride]
[1]; [13]
  Log Reduction/mL (20° C.) 8 hr: 0.0
[1]; [14]
  Log Reduction/mL (20° C.) 24 hr: 0.1
[1]; 20° C.
  Log Reduction/mL (3 hr, 20° C., pH = 8): 0

## [I-].[K+] [1000 mM KI, potassium iodide]
[1]; 20° C.
  Log Reduction/mL (3 hr, 20° C., pH = 8): 0

## [Br-].[Na+] [1000 mM NaBr, sodium bromide]
[1]; [16]
  Log Reduction/mL (20° C.) 4 hr: 0.0
[1]; [17]
  Log Reduction/mL (20° C.) 24 hr: 0.1

## [Cl-].[Na+] [1000 mM NaCl, sodium chloride]
[1]; [17]
  Log Reduction/mL (20° C.) 24 hr: 0.2

## [F-].[Na+] [1000 mM NaF, sodium fluoride]
[1]; [11]
  Log Reduction/mL (20° C.) 8 hr: 0.0
[1]; [12]
  Log Reduction/mL (20° C.) 8 hr: 0.0
[1]; [17]
  Log Reduction/mL (20° C.) 24 hr: 0.0

## [I-].[Na+] [1000 mM Nal, sodium iodide]
[1]; [16]
  Log Reduction/mL (20° C.) 4 hr: 0.0
[1]; [12]
  Log Reduction/mL (20° C.) 8 hr: 0.0
[1]; [17]
  Log Reduction/mL (20° C.) 24 hr: 0.1

## O=C([O-])O.[Na+] [NaHCO3, sodium bicarbonate]
[8]; pH 7.3, [NaHCO3] 0.02M
  Pressure Above Atmospheric Pressure (mmHg) 20° C.: 72 mmHg
  Pressure Above Atmospheric Pressure (mmHg) 40° C.: 208 mmHg
  Pressure Above Atmospheric Pressure (mmHg) 55° C.: 378 mmHg
[8]; pH 7.4, [NaHCO3] 0.3M
  Pressure Above Atmospheric Pressure (mmHg) 20° C.: 250 mmHg
  Pressure Above Atmospheric Pressure (mmHg) 40° C.: 570 mmHg
  Pressure Above Atmospheric Pressure (mmHg) 55° C.: 862 mmHg
[8]; pH 7.8, [NaHCO3] 0.3M
  Pressure Above Atmospheric Pressure (mmHg) 20° C.: 134 mmHg
  Pressure Above Atmospheric Pressure (mmHg) 40° C.: 322 mmHg
  Pressure Above Atmospheric Pressure (mmHg) 55° C.: 542 mmHg
[9]; pH 7.2, [NaHCO3] 0.3M
  Pressure Below (−) or Above (+) Atmospheric Pressure (mmHg) 20° C.: −158 mmHg
  Pressure Below (−) or Above (+) Atmospheric Pressure (mmHg) 40° C.: 202 mmHg
  Pressure Below (−) or Above (+) Atmospheric Pressure (mmHg) 55° C.: 532 mmHg
[9]; pH 7.3, [NaHCO3] 0.02M
  Pressure Below (−) or Above (+) Atmospheric Pressure (mmHg) 20° C.: −508 mmHg
  Pressure Below (−) or Above (+) Atmospheric Pressure (mmHg) 40° C.: −348 mmHg
  Pressure Below (−) or Above (+) Atmospheric Pressure (mmHg) 55° C.: −202 mmHg
[9]; pH 7.4, [NaHCO3] 0.3M
  Pressure Below (−) or Above (+) Atmospheric Pressure (mmHg) 20° C.: −290 mmHg
  Pressure Below (−) or Above (+) Atmospheric Pressure (mmHg) 40° C.: 0 mmHg
  Pressure Below (−) or Above (+) Atmospheric Pressure (mmHg) 55° C.: 274 mmHg
[9]; pH 7.8, [NaHCO3] 0.3M
  Pressure Below (−) or Above (+) Atmospheric Pressure (mmHg) 20° C.: −440 mmHg
  Pressure Below (−) or Above (+) Atmospheric Pressure (mmHg) 40° C.: −246 mmHg
  Pressure Below (−) or Above (+) Atmospheric Pressure (mmHg) 55° C.: −50 mmHg
[10]; initial air 440 / CO2 320 mmHg, NaHCO3 0.3 mole/L, pH 7.4, about 20° C.
  Final Pressure at Equilibrium (mmHg): 758 mmHg
[10]; initial air 674 / CO2 86 mmHg, NaHCO3 0.3 mole/L, pH 8.0, about 20° C.
  Final Pressure at Equilibrium (mmHg): 760 mmHg
[10]; initial air 726 / CO2 34 mmHg, NaHCO3 0.05 mole/L, pH 8.0, about 20° C.
  Final Pressure at Equilibrium (mmHg): 756 mmHg
[10]; initial air 740 / CO2 20 mmHg, NaHCO3 0.05 mole/L, pH 7.4, about 20° C.
  Final Pressure at Equilibrium (mmHg): 758 mmHg
